Laboratory results: patent US8466088B2, “Herbicidal compositions containing benzoylpyrazole compounds” (Ishihara Sangyo Kaisha, Ltd., priority 2007, dated 2013)
Read-outs that look alike come from different tables or passages of the source.

Tests used:
crabgrass = test: Example 1: pot test, foliar treatment, visually observed growth inhibition of crabgrass; format: in vivo
From the text: (§1) When the herbicidal activity in a case where two active ingredients are combined, is larger than the simple sum of the respective herbicidal activities of the two active ingredients (the expected activity), it is called a synergistic effect. The activity expected by the combination of two active ingredients can be calculated as follows (Colby S. R., “Weed”, vol. 15, p. 20-22, 1967). E=α+β−(α×β+100) where
(§2) α: growth inhibition rate when treated with x (g/ha) of herbicide X,
(§3) β: growth inhibition rate when treated with y (g/ha) of herbicide Y,
(§4) E: growth inhibition rate expected when treated with x (g/ha) of herbicide X and y (g/ha) of herbicide Y.
(§5) That is, when the actual growth inhibition rate (measured value) is larger than the growth inhibition rate by the above calculation (calculated value), the activity by the combination can be regarded as showing a synergistic effect.
(§6) Upland field soil was put into a 1/1,000,000 hectare pot, and seeds of various plants were sown. When the respective plants reached predetermined leaf stage, herbicidal compositions in predetermined amounts were diluted with water in an amount corresponding to 300 L/ha and applied for foliar treatment by a small sprayer.
(§7) Further, in accordance with the above Colby's formula, the growth inhibition rate (calculated value) was calculated. In Tables, with respect to the compound A, Compound Nos. in Table 1 or 3 are described, and with respect to other herbicidal compounds, common names are described.

velvetleaf = test: Example 1: pot test, foliar treatment, visually observed growth inhibition of velvetleaf; format: in vivo, Abutilon theophrasti MEDIC.
From the text: as §1, §2, §3, §4, §5, §6, §7

[1] = Digitaria sanguinalis, foliar, read-out: Growth inhibition rate (%) of crabgrass, Measured value
[2] = Digitaria sanguinalis, foliar, 3.0 to 4.3 leaf stage, 21st day after application, read-out: Growth inhibition rate (%) of crabgrass, Measured value
[3] = Digitaria sanguinalis, foliar, 3.0 to 4.3 leaf stage, 21st day after application, 15 g/ha, read-out: Growth inhibition rate (%) of crabgrass, Measured value
[4] = 3.2 to 4.3 leaf stage, 21st day after application, 125 g/ha

CCOC(=O)C(Cl)Cc1cc(-n2nc(C)n(C(F)F)c2=O)c(F)cc1Cl (stereo not drawn) [Carfentrazone-ethyl]
inhibition at 2.5 g/ha (crabgrass; [1]): 0% | inhibition at 5 g/ha (crabgrass; [1]): 0% | inhibition at 5 g/ha (velvetleaf; Abutilon theophrasti, foliar, read-out: Growth inhibition rate (%) of velvetleaf, Measured value, 2.0 to 2.5 leaf stage, 21st day after application): 98% | inhibition at 2.5 g/ha (velvetleaf; Abutilon theophrasti, foliar, read-out: Growth inhibition rate (%) of velvetleaf, Measured value, 3.2 to 4.3 leaf stage, 21st day after application, 2.5 g/ha): 65% | inhibition at 5 g/ha (velvetleaf; Abutilon theophrasti, foliar, read-out: Growth inhibition rate (%) of velvetleaf, Measured value, 3.3 to 4.3 leaf stage, 20th day after application): 80%

CNC.COc1c(Cl)ccc(Cl)c1C(=O)O [Dicamba-dimethylammonium]
Growth inhibition rate (%) of crabgrass, Measured value (crabgrass; 3.0 to 4.3 leaf stage, 21st day after application, 100 g/ha): 0% | Growth inhibition rate (%) of crabgrass, Measured value (crabgrass; 3.0 to 4.3 leaf stage, 21st day after application, 200 g/ha): 0% | Growth inhibition rate (%) of crabgrass, Measured value (crabgrass; 3.5 to 5.0 leaf stage, 22nd day after application, 100 g/ha): 0% | Growth inhibition rate (%) of crabgrass, Measured value (crabgrass; 3.5 to 5.0 leaf stage, 22nd day after application, 200 g/ha): 0% | Growth inhibition rate (%) of crabgrass, Measured value (crabgrass; 3.7 to 4.6 leaf stage, 21st day after application, 100 g/ha): 0% | Growth inhibition rate (%) of crabgrass, Measured value (crabgrass; 3.7 to 4.6 leaf stage, 21st day after application, 200 g/ha): 15% | Growth inhibition rate (%) of velvetleaf, Measured value (velvetleaf; 2.0 to 2.8 leaf stage, 21st day after application, 100 g/ha): 50% | Growth inhibition rate (%) of velvetleaf, Measured value (velvetleaf; 2.0 to 2.8 leaf stage, 21st day after application, 200 g/ha): 55% | Growth inhibition rate (%) of velvetleaf, Measured value (velvetleaf; 3.0 to 3.8 leaf stage, 28th day after application, 100 g/ha): 50% | Growth inhibition rate (%) of velvetleaf, Measured value (velvetleaf; 3.2 to 5.0 leaf stage, 14th day after application, 100 g/ha): 50% | Growth inhibition rate (%) of velvetleaf, Measured value (velvetleaf; 3.2 to 5.0 leaf stage, 21st day after application, 100 g/ha): 50% | Growth inhibition rate (%) of velvetleaf, Measured value (velvetleaf; 3.5 to 4.3 leaf stage, 21st day after application, 100 g/ha): 50%

CCSC(=O)Oc1c(C(=O)c2ccc(S(C)(=O)=O)c(OCCOC)c2C)cnn1C [No. 55, 5-(ethylthio)carbonyloxy-1-methylpyrazol-4-yl 3-(2-methoxyethoxy)-2-methyl-4-(methylsulfonyl)phenyl ketone]
Growth inhibition rate (%) of crabgrass, Measured value (crabgrass; 4.0 to 4.5 leaf stage, 21st day after application, 15 g/ha): 85% | inhibition at 7 g/ha (crabgrass; [2]): 83% | inhibition at 15 g/ha (crabgrass; [3]): 95% | inhibition at 7 g/ha (crabgrass; Digitaria sanguinalis, foliar, 3.2 to 4.2 leaf stage, 21st day after application, read-out: Growth inhibition rate (%) of crabgrass, Measured value): 80% | inhibition at 15 g/ha (crabgrass; Digitaria sanguinalis, foliar, 3.2 to 4.2 leaf stage, 21st day after application, 15 g/ha, read-out: Growth inhibition rate (%) of crabgrass, Measured value): 98% | inhibition at 7 g/ha (crabgrass; Digitaria sanguinalis, foliar, 3.5 to 4.0 leaf stage, 21st day after application, read-out: Growth inhibition rate (%) of crabgrass, Measured value): 95% | inhibition at 15 g/ha (crabgrass; Digitaria sanguinalis, foliar, 4.0 to 4.5 leaf stage, 21st day after application, 15 g/ha, read-out: Growth inhibition rate (%) of crabgrass, Measured value): 73% | Growth inhibition rate (%) of velvetleaf, Measured value (velvetleaf; 3.0 to 3.5 leaf stage, 21st day after application, 15 g/ha): 89% | inhibition at 7 g/ha (velvetleaf; Abutilon theophrasti, foliar, 2.0 to 2.5 leaf stage, 21st day after application, read-out: Growth inhibition rate (%) of velvetleaf, Measured value): 65% | inhibition at 7 g/ha (velvetleaf; Abutilon theophrasti, foliar, 2.0 to 2.8 leaf stage, 21st day after application, read-out: Growth inhibition rate (%) of velvetleaf, Measured value): 70% | inhibition at 15 g/ha (velvetleaf; Abutilon theophrasti, foliar, 2.0 to 2.8 leaf stage, 21st day after application, 15 g/ha, read-out: Growth inhibition rate (%) of velvetleaf, Measured value): 90% | inhibition at 15 g/ha (velvetleaf; Abutilon theophrasti, foliar, 3.0 to 3.5 leaf stage, 21st day after application, 15 g/ha, read-out: Growth inhibition rate (%) of velvetleaf, Measured value): 75%

COC(=O)c1c(S(C)(=O)=O)ccc(C(=O)c2cnn(C)c2O)c1C [No. 2-1]
Growth inhibition rate (%) of crabgrass, Measured value (crabgrass; 3.8 to 4.4 leaf stage, 21st day after application, 3.5 g/ha): 45% | Growth inhibition rate (%) of velvetleaf, Measured value (velvetleaf; 3.5 to 4.3 leaf stage, 21st day after application, 3.5 g/ha): 30%

CCCCCCCCSC(=O)Oc1cc(Cl)nnc1-c1ccccc1 [Pyridate]
inhibition at 100 g/ha (crabgrass; Digitaria sanguinalis, foliar, 3.0 to 4.3 leaf stage, 21st day after application, 100 g/ha, read-out: Growth inhibition rate (%) of crabgrass, Measured value): 0% | inhibition at 200 g/ha (crabgrass; Digitaria sanguinalis, foliar, 3.0 to 4.3 leaf stage, 21st day after application, 200 g/ha, read-out: Growth inhibition rate (%) of crabgrass, Measured value): 0% | inhibition at 200 g/ha (crabgrass; Digitaria sanguinalis, foliar, 3.2 to 4.3 leaf stage, 21st day after application, 200 g/ha, read-out: Growth inhibition rate (%) of crabgrass, Measured value): 0% | inhibition at 200 g/ha (crabgrass; Digitaria sanguinalis, foliar, 4.1 to 5.3 leaf stage, 20th day after application, 200 g/ha, read-out: Growth inhibition rate (%) of crabgrass, Measured value): 5% | inhibition at 200 g/ha (velvetleaf; Abutilon theophrasti, foliar, 3.2 to 4.3 leaf stage, 21st day after application, 200 g/ha, read-out: Growth inhibition rate (%) of velvetleaf, Measured value): 0%

CCOCc1c(S(C)(=O)=O)ccc(C(=O)c2cnn(C)c2O)c1C [No. 2-41]
Growth inhibition rate (%) of crabgrass, Measured value (crabgrass; 3.8 to 5.2 leaf stage, 21st day after application, 3.5 g/ha): 35% | Growth inhibition rate (%) of velvetleaf, Measured value (velvetleaf; 3.2 to 5.0 leaf stage, 14th day after application, 3.5 g/ha): 70% | Growth inhibition rate (%) of velvetleaf, Measured value (velvetleaf; 3.2 to 5.0 leaf stage, 21st day after application, 3.5 g/ha): 60%

CCOC(=O)COc1ccc(Cl)cc1Cl [2,4-D-ethyl]
Growth inhibition rate (%) of crabgrass, Measured value (crabgrass; [4]): 0% | Growth inhibition rate (%) of crabgrass, Measured value (crabgrass; 3.6 to 4.5 leaf stage, 14th day after application, 100 g/ha): 0% | Growth inhibition rate (%) of crabgrass, Measured value (crabgrass; 3.6 to 4.5 leaf stage, 22nd day after application, 200 g/ha): 25% | Growth inhibition rate (%) of velvetleaf, Measured value (velvetleaf; 2.4 to 3.2 leaf stage, 22nd day after application, 63 g/ha): 30% | Growth inhibition rate (%) of velvetleaf, Measured value (velvetleaf; [4]): 50%

COc1nc(C)nc(NC(=O)NS(=O)(=O)c2ccccc2CCC(F)(F)F)n1 [Prosulfuron]
inhibition at 15 g/ha (crabgrass; [3]): 0% | inhibition at 30 g/ha (crabgrass; [2]): 0% | inhibition at 15 g/ha (crabgrass; Digitaria sanguinalis, foliar, 3.2 to 4.1 leaf stage, 14th day after application, 15 g/ha, read-out: Growth inhibition rate (%) of crabgrass, Measured value): 0% | inhibition at 30 g/ha (crabgrass; Digitaria sanguinalis, foliar, 3.2 to 4.1 leaf stage, 14th day after application, read-out: Growth inhibition rate (%) of crabgrass, Measured value): 10% | inhibition at 15 g/ha (crabgrass; Digitaria sanguinalis, foliar, 3.2 to 4.1 leaf stage, 21st day after application, 15 g/ha, read-out: Growth inhibition rate (%) of crabgrass, Measured value): 0% | inhibition at 5 g/ha (crabgrass; Digitaria sanguinalis, foliar, 3.2 to 4.3 leaf stage, 14th day after application, 5 g/ha, read-out: Growth inhibition rate (%) of crabgrass, Measured value): 0% | inhibition at 10 g/ha (crabgrass; Digitaria sanguinalis, foliar, 3.2 to 4.3 leaf stage, 14th day after application, 10 g/ha, read-out: Growth inhibition rate (%) of crabgrass, Measured value): 0% | inhibition at 30 g/ha (velvetleaf; Abutilon theophrasti, foliar, 3.0 to 4.0 leaf stage, 21st day after application, 30 g/ha, read-out: Growth inhibition rate (%) of velvetleaf, Measured value): 95%

CCc1cccc(C)c1N(C(=O)CCl)[C@@H](C)COC [S-Metolachlor, S-metolachlor, reference compound]
Growth inhibition rate (%) of crabgrass, Measured value (crabgrass; 4.0 to 4.5 leaf stage, 21st day after application, 300 g/ha): 8% | Growth inhibition rate (%) of crabgrass, Measured value (crabgrass; 4.0 to 5.0 leaf stage, 21st day after application, 150 g/ha): 0% | Growth inhibition rate (%) of velvetleaf, Measured value (velvetleaf; 2.4 to 3.2 leaf stage, on the 22nd day after application, foliar, active ingredient amount 150 g/ha): 0% | Growth inhibition rate (%) of velvetleaf, Measured value (velvetleaf; 2.5 to 3.3 leaf stage, 21st day after application, 150 g/ha): 0% | Growth inhibition rate (%) of velvetleaf, Measured value (velvetleaf; 2.5 to 3.3 leaf stage, 21st day after application, 300 g/ha): 0% | Growth inhibition rate (%) of velvetleaf, Measured value (velvetleaf; 3.0 to 3.5 leaf stage, 20th day after application, 150 g/ha): 0% | Growth inhibition rate (%) of velvetleaf, Measured value (velvetleaf; 3.0 to 3.5 leaf stage, 21st day after application, 150 g/ha): 0% | Growth inhibition rate (%) of velvetleaf, Measured value (velvetleaf; 3.0 to 3.5 leaf stage, 21st day after application, 300 g/ha): 0% | Growth inhibition rate (%) of velvetleaf, Measured value (velvetleaf; 3.0 to 3.8 leaf stage, 15th day after application, 15 g/ha): 0% | Growth inhibition rate (%) of velvetleaf, Measured value (velvetleaf; 3.2 to 5.0 leaf stage, 14th day after application, 150 g/ha): 0% | Growth inhibition rate (%) of velvetleaf, Measured value (velvetleaf; 3.3 to 4.2 leaf stage, 14th day after application, 150 g/ha): 0% | Growth inhibition rate (%) of velvetleaf, Measured value (velvetleaf; 3.3 to 4.2 leaf stage, 14th day after application, 300 g/ha): 0% | Growth inhibition rate (%) of velvetleaf, Measured value (velvetleaf; 3.5 to 4.3 leaf stage, 21st day after application, 150 g/ha): 0%

CC(C)N(C(=O)COc1nnc(C(F)(F)F)s1)c1ccc(F)cc1 [Flufenacet]
inhibition at 150 g/ha (crabgrass; Digitaria sanguinalis, foliar, 3.0 to 4.3 leaf stage, 21st day after application, 150 g/ha, read-out: Growth inhibition rate (%) of crabgrass, Measured value): 0% | inhibition at 300 g/ha (crabgrass; Digitaria sanguinalis, foliar, 3.0 to 4.3 leaf stage, 21st day after application, 300 g/ha, read-out: Growth inhibition rate (%) of crabgrass, Measured value): 5% | inhibition at 300 g/ha (crabgrass; Digitaria sanguinalis, foliar, 3.2 to 4.3 leaf stage, 21st day after application, 300 g/ha, read-out: Growth inhibition rate (%) of crabgrass, Measured value): 10% | inhibition at 300 g/ha (velvetleaf; Abutilon theophrasti, foliar, 3.2 to 4.3 leaf stage, 21st day after application, 300 g/ha, read-out: Growth inhibition rate (%) of velvetleaf, Measured value): 0%
